Source: patent publication EP2468741A1, “Novel quercetin derivatives, their preparation, pharmaceutical compositions containing them and their use” (Bel/Novamann International s.r.o., priority 2010, dated 2012)

Assay: Free radical inhibiting activity in vitro (DPPH)
Type: biochemical
Settings: 50 µM DPPH in ethanol, 30 minutes, room temperature, decrease in OD, solvent control subtracted
Procedure: A 50 µM solution of 1,1-diphenyl-2-picrylhydrazyl (DPPH) in ethanol is added for 30 minutes at room temperature to a tested sample. The drop in absorbance is then measured and the results are given as the percentage decrease in OD caused by the test compound relative to the solvent used. The tested products are dissolved in ethanol (except product according to Example 7 when DMSO was used); the results (solvent control subtracted) are given as % free radical inhibiting activity as described in table 2.

Compound	Free radical inhibiting activity (dissolved in ethanol) [%]	Free radical inhibiting activity (dissolved in DMSO) [%]
COc1cc(C=CC(=O)Oc2cc(O)c3c(=O)c(OC(=O)C=Cc4ccc(OCC=C(C)C)c(OC)c4)c(-c4ccc(OC(=O)C=Cc5ccc(OCC=C(C)C)c(OC)c5)c(OC(=O)C=Cc5ccc(OCC=C(C)C)c(OC)c5)c4)oc3c2)ccc1OCC=C(C)C [Example 8, 3-(O-prenylferuloyloxy)-2-(3,4-bis-(O-prenylferuloyloxy)phenyl)-7-(O-prenyl-feruloyloxy)-5-hydroxy-chromen-4-one]	75	–
CC(=O)Oc1ccccc1C(=O)Oc1cc(O)c2c(=O)c(OC(=O)c3ccccc3OC(C)=O)c(-c3ccc(OC(=O)c4ccccc4OC(C)=O)c(OC(=O)c4ccccc4OC(C)=O)c3)oc2c1 [Example 3, 3,7-bis-(2-acetylsalicyloyloxy)-2-(3,4-bis-(2-acetylsalicyloyloxy)phenyl)-5-hydroxy-chromen-4-one]	82	–
O=c1c(O)c(-c2ccc(O)c(O)c2)oc2cc(O)cc(O)c12 [Quercetin]	62	–
1,3-bis-butyryloxy-11a-hydroxy-9-(3,5,7-tributyryloxy-4H-1-benzopyran-4-on-2-yl)-5a-(3,4-bisbutyryloxyphenyl)-5,6,11-hexahydro-5,6,11-trioxanaphtacene-12-one [Example 7]	–	95
